Reference: patent publication US10670605B2, “Cysteine reactive probes and uses thereof” (The Scripps Research Institute, priority 2015, dated 2020)

Key:
Assay in all cases: Competitive isoTOP-ABPP in situ (fragment-treated cells)
Format in all cases: cell-based
[1] = target: T1, cysteines in MDA-MB-231 and Ramos cells (Homo sapiens, UniProt Q96T76); details: for isoTOP-ABPP reactivity Q96T76_C848 MMS19 / isoTOP-ABPP ratio Q96T76_C848: 231
T1 sequence (Q96T76 1-1030): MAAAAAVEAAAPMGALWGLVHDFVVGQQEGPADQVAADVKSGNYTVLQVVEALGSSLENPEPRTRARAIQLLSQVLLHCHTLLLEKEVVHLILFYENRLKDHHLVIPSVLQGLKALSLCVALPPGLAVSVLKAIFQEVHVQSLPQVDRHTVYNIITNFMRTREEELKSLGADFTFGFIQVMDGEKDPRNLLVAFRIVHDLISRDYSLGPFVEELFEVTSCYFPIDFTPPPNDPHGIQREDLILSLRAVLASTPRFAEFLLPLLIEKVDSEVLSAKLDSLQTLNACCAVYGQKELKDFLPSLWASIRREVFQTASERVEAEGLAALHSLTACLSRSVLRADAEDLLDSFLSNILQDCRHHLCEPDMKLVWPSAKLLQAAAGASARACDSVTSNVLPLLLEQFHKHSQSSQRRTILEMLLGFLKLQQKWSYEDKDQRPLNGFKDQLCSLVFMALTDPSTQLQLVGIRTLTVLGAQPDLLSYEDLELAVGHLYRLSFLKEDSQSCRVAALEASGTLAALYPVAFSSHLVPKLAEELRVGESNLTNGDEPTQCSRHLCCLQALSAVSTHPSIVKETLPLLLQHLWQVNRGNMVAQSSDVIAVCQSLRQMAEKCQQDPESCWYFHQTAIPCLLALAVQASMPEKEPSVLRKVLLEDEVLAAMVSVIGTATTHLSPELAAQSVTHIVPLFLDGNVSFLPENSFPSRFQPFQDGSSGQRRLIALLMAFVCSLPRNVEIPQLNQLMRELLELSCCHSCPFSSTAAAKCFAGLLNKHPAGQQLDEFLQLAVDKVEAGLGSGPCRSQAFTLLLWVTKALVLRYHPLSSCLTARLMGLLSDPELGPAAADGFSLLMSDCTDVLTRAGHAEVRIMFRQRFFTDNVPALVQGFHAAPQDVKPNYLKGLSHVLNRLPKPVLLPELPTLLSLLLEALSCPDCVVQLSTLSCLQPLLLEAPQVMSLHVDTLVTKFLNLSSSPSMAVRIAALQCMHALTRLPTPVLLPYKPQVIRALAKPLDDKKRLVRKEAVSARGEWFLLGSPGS

[2] = target: T2, cysteines in MDA-MB-231 and Ramos cells (Homo sapiens, UniProt Q99757)
T2 sequence (Q99757 60-166): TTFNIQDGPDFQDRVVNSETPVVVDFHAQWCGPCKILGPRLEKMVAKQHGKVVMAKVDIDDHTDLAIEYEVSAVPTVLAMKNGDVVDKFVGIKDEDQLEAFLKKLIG

[3] = target: T3, cysteines in MDA-MB-231 and Ramos cells (Homo sapiens, UniProt P04183)
T3 sequence (P04183 1-234): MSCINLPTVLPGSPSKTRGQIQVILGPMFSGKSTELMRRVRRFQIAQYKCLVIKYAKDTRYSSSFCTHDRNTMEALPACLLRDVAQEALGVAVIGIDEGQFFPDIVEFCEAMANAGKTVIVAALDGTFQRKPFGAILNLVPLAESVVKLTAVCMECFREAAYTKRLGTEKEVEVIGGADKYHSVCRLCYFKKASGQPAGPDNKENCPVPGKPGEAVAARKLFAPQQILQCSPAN

[4] = target: cysteines in MDA-MB-231 and Ramos cells (Homo sapiens, UniProt Q15365)
[5] = target: T4, cysteines in MDA-MB-231 and Ramos cells (Homo sapiens, UniProt Q9UMS0); details: 200 μM, insitu, 231
T4 sequence (Q9UMS0 10-254): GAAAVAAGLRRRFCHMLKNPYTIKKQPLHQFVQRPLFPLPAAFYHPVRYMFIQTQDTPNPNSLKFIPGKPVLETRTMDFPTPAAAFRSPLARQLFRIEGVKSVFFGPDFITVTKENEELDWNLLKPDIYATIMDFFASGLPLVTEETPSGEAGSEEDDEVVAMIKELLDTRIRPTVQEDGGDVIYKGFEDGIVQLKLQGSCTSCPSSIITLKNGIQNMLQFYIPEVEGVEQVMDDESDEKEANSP

[6] = target: T5, cysteines in MDA-MB-231 and Ramos cells (Homo sapiens, UniProt Q15084)
T5 sequence (Q15084 20-440): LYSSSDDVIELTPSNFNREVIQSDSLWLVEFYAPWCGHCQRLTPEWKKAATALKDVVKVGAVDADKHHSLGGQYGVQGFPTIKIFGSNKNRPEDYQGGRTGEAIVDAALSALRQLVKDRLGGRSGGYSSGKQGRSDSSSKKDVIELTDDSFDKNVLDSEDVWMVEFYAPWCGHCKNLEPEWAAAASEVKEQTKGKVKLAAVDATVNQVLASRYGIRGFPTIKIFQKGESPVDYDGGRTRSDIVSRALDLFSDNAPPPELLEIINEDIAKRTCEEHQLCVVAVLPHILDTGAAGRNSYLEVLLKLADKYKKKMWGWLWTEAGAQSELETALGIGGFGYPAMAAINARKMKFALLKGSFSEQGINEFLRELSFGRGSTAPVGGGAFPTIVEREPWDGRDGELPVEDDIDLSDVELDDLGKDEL

[7] = target: cysteines in MDA-MB-231 and Ramos cells (Homo sapiens, UniProt Q16831)
[8] = target: cysteines in MDA-MB-231 and Ramos cells (Homo sapiens, UniProt Q9BXW7)
[9] = target: T6, cysteines in MDA-MB-231 and Ramos cells (Homo sapiens, UniProt Q9BVC5)
T6 sequence (Q9BVC5 1-232): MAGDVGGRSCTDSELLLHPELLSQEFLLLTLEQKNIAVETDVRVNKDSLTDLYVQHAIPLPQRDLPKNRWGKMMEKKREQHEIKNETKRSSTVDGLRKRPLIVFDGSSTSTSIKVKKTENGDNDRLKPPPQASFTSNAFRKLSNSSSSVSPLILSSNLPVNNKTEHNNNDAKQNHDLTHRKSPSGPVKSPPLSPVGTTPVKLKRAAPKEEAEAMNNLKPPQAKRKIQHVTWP

[10] = target: cysteines in MDA-MB-231 and Ramos cells (Homo sapiens, UniProt Q93009)
cysteines in MDA-MB-231 and Ramos cells (Homo sapiens, UniProt Q93009), sequence (Q93009 whole entry): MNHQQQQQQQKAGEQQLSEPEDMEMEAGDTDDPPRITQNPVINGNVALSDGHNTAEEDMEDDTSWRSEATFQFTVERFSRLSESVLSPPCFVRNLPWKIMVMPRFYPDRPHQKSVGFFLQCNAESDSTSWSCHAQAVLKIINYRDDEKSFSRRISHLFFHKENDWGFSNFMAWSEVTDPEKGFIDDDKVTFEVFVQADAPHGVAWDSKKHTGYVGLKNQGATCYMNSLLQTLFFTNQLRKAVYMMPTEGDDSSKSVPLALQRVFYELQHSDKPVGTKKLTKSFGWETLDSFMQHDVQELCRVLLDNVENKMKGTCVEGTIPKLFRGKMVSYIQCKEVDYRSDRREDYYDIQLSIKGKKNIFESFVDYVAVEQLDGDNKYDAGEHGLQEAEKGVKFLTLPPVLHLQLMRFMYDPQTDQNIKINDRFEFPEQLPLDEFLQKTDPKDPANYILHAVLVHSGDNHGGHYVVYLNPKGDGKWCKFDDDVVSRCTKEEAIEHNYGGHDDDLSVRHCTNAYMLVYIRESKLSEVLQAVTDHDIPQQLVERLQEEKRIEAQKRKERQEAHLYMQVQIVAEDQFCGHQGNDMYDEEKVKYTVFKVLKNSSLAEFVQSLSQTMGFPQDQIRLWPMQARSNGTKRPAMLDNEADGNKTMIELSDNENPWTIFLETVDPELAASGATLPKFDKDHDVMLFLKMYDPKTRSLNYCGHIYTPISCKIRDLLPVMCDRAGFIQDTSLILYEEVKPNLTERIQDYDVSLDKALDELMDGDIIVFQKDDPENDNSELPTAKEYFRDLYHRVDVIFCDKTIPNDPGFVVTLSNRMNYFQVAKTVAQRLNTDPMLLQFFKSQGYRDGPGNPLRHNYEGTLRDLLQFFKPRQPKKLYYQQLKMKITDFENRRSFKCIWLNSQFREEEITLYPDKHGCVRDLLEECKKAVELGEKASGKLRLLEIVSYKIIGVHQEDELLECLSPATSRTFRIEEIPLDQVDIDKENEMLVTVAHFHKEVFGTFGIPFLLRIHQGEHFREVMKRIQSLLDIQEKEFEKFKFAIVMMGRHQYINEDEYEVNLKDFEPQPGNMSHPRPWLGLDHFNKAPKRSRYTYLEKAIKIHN

cysteines in MDA-MB-231 and Ramos cells (Homo sapiens, UniProt Q9BXW7), sequence (Q9BXW7 24-423): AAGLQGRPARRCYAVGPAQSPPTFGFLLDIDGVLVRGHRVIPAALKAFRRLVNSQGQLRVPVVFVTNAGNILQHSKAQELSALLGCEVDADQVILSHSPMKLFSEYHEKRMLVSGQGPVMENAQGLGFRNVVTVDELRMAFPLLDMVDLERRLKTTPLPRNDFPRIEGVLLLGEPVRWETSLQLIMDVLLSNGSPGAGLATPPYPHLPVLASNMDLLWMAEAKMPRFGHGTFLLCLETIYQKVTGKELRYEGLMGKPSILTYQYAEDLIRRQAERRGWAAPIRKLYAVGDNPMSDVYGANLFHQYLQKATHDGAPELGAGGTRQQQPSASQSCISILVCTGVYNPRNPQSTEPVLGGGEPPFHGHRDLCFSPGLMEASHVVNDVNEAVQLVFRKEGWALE
cysteines in MDA-MB-231 and Ramos cells (Homo sapiens, UniProt Q15365), sequence (Q15365 whole entry): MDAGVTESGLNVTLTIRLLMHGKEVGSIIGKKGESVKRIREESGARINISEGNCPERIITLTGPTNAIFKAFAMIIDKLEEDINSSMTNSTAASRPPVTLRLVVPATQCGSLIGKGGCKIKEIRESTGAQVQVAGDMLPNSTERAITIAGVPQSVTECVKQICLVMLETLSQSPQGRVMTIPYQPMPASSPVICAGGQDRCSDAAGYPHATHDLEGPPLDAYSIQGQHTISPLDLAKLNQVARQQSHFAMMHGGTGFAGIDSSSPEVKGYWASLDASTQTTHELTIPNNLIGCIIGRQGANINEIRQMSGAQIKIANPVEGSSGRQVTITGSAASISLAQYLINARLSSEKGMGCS
cysteines in MDA-MB-231 and Ramos cells (Homo sapiens, UniProt Q16831), sequence (Q16831 whole entry): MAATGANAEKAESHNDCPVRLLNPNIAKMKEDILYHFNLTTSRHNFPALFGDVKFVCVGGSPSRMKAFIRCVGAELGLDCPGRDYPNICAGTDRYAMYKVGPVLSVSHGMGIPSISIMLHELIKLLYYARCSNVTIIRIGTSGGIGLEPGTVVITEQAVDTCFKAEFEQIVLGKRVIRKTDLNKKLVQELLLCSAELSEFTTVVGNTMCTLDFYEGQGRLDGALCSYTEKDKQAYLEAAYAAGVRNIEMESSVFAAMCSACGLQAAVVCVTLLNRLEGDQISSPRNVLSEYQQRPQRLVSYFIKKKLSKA

SMILES | isoTOP-ABPP reactivity Q96T76_C848 MMS19 ([1]; 200 μM, insitu) | isoTOP-ABPP reactivity Q99757_C90 TXN2 ([2]; 200 μM, insitu, 231) | isoTOP-ABPP reactivity P04183_C230 TK1 ([3]; 200 μM, insitu, 231) | isoTOP-ABPP reactivity Q15365_C194 PCBP1 ([4]; 200 μM, insitu, 231) | isoTOP-ABPP reactivity Q15084_C55 PDIA6 ([6]; 200 μM, insitu, 231) | isoTOP-ABPP reactivity Q16831_C162 UPP1 ([7]; 200 μM, insitu, 231) | isoTOP-ABPP reactivity Q9BXW7_C392 CECR5 ([8]; 200 μM, insitu, 231) | isoTOP-ABPP reactivity Q9BVC5_C10 C2orf49 ([9]; 200 μM, insitu, 231) | isoTOP-ABPP reactivity P04183_C66 TK1 ([3]; 200 μM, insitu, 231) | isoTOP-ABPP ratio Q96T76_C848 ([1]; 200 μM, insitu) | isoTOP-ABPP ratio Q93009_C223 ([10]; 200 μM, insitu, 231) | isoTOP-ABPP ratio Q15365_C194 ([4]; 200 μM, insitu, 231) | isoTOP-ABPP ratio Q9UMS0_C213 [5] | isoTOP-ABPP ratio Q15084_C55 ([6]; 200 μM, insitu, 231) | isoTOP-ABPP ratio, Q15084_C190 ([6]; 200 μM, insitu, 231) | isoTOP-ABPP ratio Q16831_C162 ([7]; 200 μM, insitu, 231) | isoTOP-ABPP ratio Q9BXW7_C392 ([8]; 200 μM, insitu, 231) | isoTOP-ABPP ratio Q9BVC5_C10 ([9]; 200 μM, insitu, 231) | also measured
COc1ccc2c(c1)CCCN2C(=O)CCl [compound 2] | 3.9 | 10.1 | 1.9 | 5.1 | 3.0 | 1.2 | 3.6 | 2.7 |  |  |  |  |  |  |  |  |  |  | isoTOP-ABPP reactivity Q9UMS0_C213 NFU1 [5]: 7.4
COc1cc2c(cc1OC)CN(C(=O)CCl)CC2 [compound 8] | 1.7 | 4.5 |  | 1.4 | 4.4 | 20.0 | 3.2 | 4.5 | 2.3 |  |  |  |  |  |  |  |  |  | isoTOP-ABPP reactivity Q93009_C223 USP7 ([10]; 200 μM, insitu, 231): 20.0; isoTOP-ABPP reactivity Q15084_C190 PDIA6 ([6]; 200 μM, insitu, 231): 5.2
O=C(CCl)N1CCC(Cc2ccccc2)CC1 [compound 9] | 20.0 | 20.0 | 10.0 | 10.1 | 2.1 | 7.7 | 1.5 |  | 7.0 |  |  |  |  |  |  |  |  |  | 
O=C(CCl)N1CCN(S(=O)(=O)c2ccccc2F)CC1 [compound 10] |  |  |  |  |  |  |  |  |  | 2.5 | 2.5 | 1.6 | 20.0 | 3.1 | 3.7 | 7.3 | 20.0 | 3.1 | isoTOP-ABPP ratio, cysteine Q96T76_C819 ([1]; 200 μM, insitu, ramos): 3.0; isoTOP-ABPP ratio P04183_C230 ([3]; 200 μM, insitu, 231): 1.3; isoTOP-ABPP ratio Q15365_C194 ([4]; 200 μM, insitu, ramos): 2.0
Cn1cc(S(=O)(=O)N2CCOCC2)cc1C(=O)NC(=O)CCl [compound 11] |  |  |  |  |  |  |  |  |  |  |  |  |  |  |  |  |  |  | isoTOP-ABPP ratio, cysteine Q96T76_C819 ([1]; 100 μM in situ 231): 0.8; isoTOP-ABPP ratio Q99757_C90 ([2]; 100 μM in situ 231): 2.7; isoTOP-ABPP ratio Q93009_C223 ([10]; 100 μM in situ 231): 1.0; isoTOP-ABPP ratio, cysteine P04183_C66 ([3]; 100 μM in situ 231): 0.6; isoTOP-ABPP ratio Q15365_C194 ([4]; 100 μM in situ 231): 0.4; isoTOP-ABPP ratio Q15084_C55 ([6]; 100 μM in situ 231): 4.3; isoTOP-ABPP ratio Q16831_C162 ([7]; 100 μM in situ 231): 0.8; isoTOP-ABPP ratio Q9BXW7_C392 ([8]; 100 μM in situ 231): 1.1; isoTOP-ABPP ratio Q9BVC5_C10 ([9]; 100 μM in situ 231): 1.1
O=C(CCl)NC(=O)NC12CC3CC(CC(C3)C1)C2 [compound 12] |  |  |  |  |  |  |  |  |  | 20.0 | 3.1 | 1.3 | 20.0 | 15.4 | 20.0 | 0.9 | 5.1 | 2.9 | isoTOP-ABPP ratio Q99757_C90 ([2]; 200 μM, insitu, 231): 5.0
